Assay results as given in BindingDB's records for patent US11964990 (Abbvie, 2024).

What was measured:
[1] = biological target: Apoptosis regulator Bcl-2 (Homo sapiens, UniProt P10415); assay: Time Resolved-Fluorescence Resonance Energy Transfer (TR-FRET) Assay
Experimental: (§1) [Bcl-2 protein or Bcl-xL protein], [Probe], [Antibody],Protein Probe nM nM Antibody nMGST- F-Bak 1 100 Tb-anti- 1Bcl- Acetyl-(SEQ GST 2 ID NO: 3)-NH2The samples were then mixed on a shaker for 1 minute and equilibrated for an additional 3 hours at room temperature. For each assay plate, a probe/antibody and protein/antibody/probe mixture were included as a negative and a positive control, respectively. Fluorescence was measured on the Envision (Perkin Elmer) using a 340/35 nm excitation filter and 520/525 (F-Bak) and 495/510 nm (Tb-labeled anti-GST antibody) emission filters. Inhibition constants (Ki) were determined using Wang's equation (Wang FEBS Lett. 1995, 360, 111-114). The TR-FRET assay can be performed in the presence of varying concentrations of human serum (HS) to determine apparent half maximal inhibitory concentration (IC50) after HS protein binding.

Bcl-2-like protein 1 = Bcl-2-like protein 1 (Homo sapiens, UniProt Q07817); assay: as above
Experimental: as §1

Chain of Bcl-2-like protein 1 (Q07817 whole entry): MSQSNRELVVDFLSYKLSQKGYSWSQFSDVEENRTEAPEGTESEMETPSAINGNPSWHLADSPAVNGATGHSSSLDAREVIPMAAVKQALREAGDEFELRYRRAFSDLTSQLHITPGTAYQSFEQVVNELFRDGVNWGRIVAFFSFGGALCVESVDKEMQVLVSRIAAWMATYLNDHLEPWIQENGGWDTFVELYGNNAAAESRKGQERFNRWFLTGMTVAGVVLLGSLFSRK
Chain of Apoptosis regulator Bcl-2 (P10415 whole entry): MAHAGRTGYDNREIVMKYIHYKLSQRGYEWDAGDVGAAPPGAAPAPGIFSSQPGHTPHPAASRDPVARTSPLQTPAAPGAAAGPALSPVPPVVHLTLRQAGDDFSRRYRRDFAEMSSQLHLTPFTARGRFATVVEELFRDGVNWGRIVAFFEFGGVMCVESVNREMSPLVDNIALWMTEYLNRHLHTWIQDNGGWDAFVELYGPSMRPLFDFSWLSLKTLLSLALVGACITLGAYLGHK

SMILES: C[C@@H]1CC[C@H](CNc2ccc(S(=O)(=O)NC(=O)c3ccc(N4CCN5CC6=C(c7ccc(Cl)cc7)CC(C)(C)C[C@H]6OCCCOC[C@@H]5C4)cc3N3CCCOc4nc5[nH]ccc5cc43)cc2[N+](=O)[O-])OC1 [US11964990, Example 21]
- Ki [1]: 0.521 nM
- Ki (Bcl-2-like protein 1): 58.9 nM
